Laboratory results taken from patent publication US8889874B2, “Imidazolone-chalcone derivatives as potential anticancer agent and process for the preparation thereof” (Council of Scientific and Industrial Research, priority 2010, dated 2014).
Like-named read-outs stand apart in the source and are kept apart here.

Tests used:
Type in all cases: cell-based, human
[1] = test system: Leukemia cancer cell lines; assay: NCI anticancer screen, SRB assay, panel summary; conditions: Homo sapiens
Experimental: (§1) Some of biological activity studies were carried out at the National Cancer Institute (NCI), Maryland, USA.
(§2) The compounds were evaluated for anticancer activity against fifty three human cancer cells derived from nine cancer types (leukemia cell line, non-small-cell lung cell line, colon cell line, CNS cell line, melanoma cell line, ovarian cell line, prostate cell line, and breast cancer cell line) as shown in Table 1. For each compound, dose response curves for each cell line were measured at a minimum of five concentrations at 10 fold dilutions. A protocol of 48 h continuous drug exposure was used and a sulforhodamine B (SRB) protein assay was used to estimate cell viability or growth.

[2] = test system: Melanoma cancer cell lines; assay: NCI anticancer screen, SRB assay, panel summary; conditions: for GI50: Homo sapiens
Experimental: as §1, §2

[3] = test system: Ovarian cancer cell lines; assay: NCI anticancer screen, SRB assay, panel summary; conditions: Homo sapiens
Experimental: as §1, §2

[4] = test system: Colon cancer cell lines; assay: NCI anticancer screen, SRB assay, panel summary; conditions: for GI50: Homo sapiens
Experimental: as §1, §2

[5] = test system: Breast cancer cell lines; assay: NCI anticancer screen, SRB assay, panel summary; conditions: Homo sapiens
Experimental: as §1, §2

[6] = test system: Non-small cell lung cancer cell lines; assay: NCI anticancer screen, SRB assay, panel summary; conditions: Homo sapiens
Experimental: as §1, §2

[7] = test system: Renal cancer cell lines; assay: NCI anticancer screen, SRB assay, panel summary; conditions: Homo sapiens
Experimental: as §1, §2

[8] = test system: Prostate cancer cell lines; assay: NCI anticancer screen, SRB assay, panel summary
Experimental: as §1, §2

[9] = test system: CNS cancer cell lines; assay: NCI anticancer screen, SRB assay, panel summary; conditions: for GI50: Homo sapiens
Experimental: as §1, §2

[10] = test system: U251 (CNS); assay: NCI anticancer screen, SRB assay, 48 h; conditions: Homo sapiens
Summary of the method: (§3)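 Sulforhodamine B protein assay read cell growth after 48 h of continuous compound exposure. Dose-response curves per cell line used at least five 10-fold-diluted concentrations, within a panel of fifty-three human lines from nine tumour types.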

[11] = test system: SF-295 (CNS); assay: NCI anticancer screen, SRB assay, 48 h; conditions: Homo sapiens
Summary of the method: as §3

[12] = test system: 786-0 (renal); assay: NCI anticancer screen, SRB assay, 48 h; conditions: Homo sapiens
Summary of the method: as §3

[13] = test system: A549/ATCC (non-small cell lung); assay: NCI anticancer screen, SRB assay, 48 h; conditions: Homo sapiens
Summary of the method: as §3

[14] = test system: RXF 393 (renal); assay: NCI anticancer screen, SRB assay, 48 h; conditions: Homo sapiens
Summary of the method: as §3

[15] = test system: OVCAR-4 (ovarian); assay: NCI anticancer screen, SRB assay, 48 h; conditions: Homo sapiens
Summary of the method: as §3

[16] = test system: RPMI-8226 (leukemia cell line); assay: NCI anticancer screen, SRB assay, 48 h; conditions: Homo sapiens
Summary of the method: as §3

[17] = test system: SK-MEL-28 (melanoma); assay: NCI anticancer screen, SRB assay, 48 h; conditions: Homo sapiens
Summary of the method: as §3

[18] = test system: HCT-116 (colon); assay: NCI anticancer screen, SRB assay, 48 h; conditions: Homo sapiens
Summary of the method: as §3

[19] = test system: UO-31 (renal); assay: NCI anticancer screen, SRB assay, 48 h; conditions: Homo sapiens
Summary of the method: as §3

[20] = test system: MCF7 (breast); assay: NCI anticancer screen, SRB assay, 48 h; conditions: Homo sapiens
Summary of the method: as §3

[21] = test system: SW-620 (colon); assay: NCI anticancer screen, SRB assay, 48 h; conditions: Homo sapiens
Summary of the method: as §3

[22] = test system: SK-MEL-5 (melanoma); assay: NCI anticancer screen, SRB assay, 48 h; conditions: Homo sapiens
Summary of the method: as §3

[23] = test system: NCI-H322M (non-small cell lung); assay: NCI anticancer screen, SRB assay, 48 h; conditions: Homo sapiens
Summary of the method: as §3

[24] = test system: PC-3 (prostate); assay: NCI anticancer screen, SRB assay, 48 h; conditions: Homo sapiens
Summary of the method: as §3

[25] = test system: MDA-MB-435 (melanoma); assay: NCI anticancer screen, SRB assay, 48 h; conditions: Homo sapiens
Summary of the method: as §3

[26] = 48 h exposure, SRB, read-out: GI50
[27] = read-out: pGI50 (-log of molar concentration causing 50% inhibition of net cell growth) (converted)

SMILES: O=C(/C=C/c1cccc(O)c1)c1cccc(-n2cc(-c3ccc4ccccc4c3)[nH]c2=O)c1 [12b, 1-3-[(E)-3-(3-hydroxyphenyl)-2-propenoyl]phenyl-4-(2-naphthyl)-2,3-dihydro-1H-2-imidazolone]
- GI50 ([1]; Leukemia panel, log of concentration in mol/L causing 50% inhibition of net cell growth, read-out: mean graph midpoint (MG_MID) of Log10 GI50 (converted)): 1.55 µM
- LC50 ([1]; Leukemia panel, log of concentration leading to 50% net cell death, read-out: mean graph midpoint (MG_MID) of Log10 LC50 (converted)): ≥ 100 µM
- GI50 ([1]; two leukemia cancer cell lines (RPMI-8226 and K-562), exposure at least 48 hrs, read-out: GI50, range over the panel): 1.43 to 1.67 µM
- GI50 ([2]; Melanoma panel, log of concentration in mol/L causing 50% inhibition of net cell growth, read-out: mean graph midpoint (MG_MID) of Log10 GI50 (converted)): 1.95 µM
- GI50 ([2]; nine melanoma cancer cell lines, exposure at least 48 hrs, read-out: GI50, range over the panel): 0.85 to 4.13 µM
- mean graph midpoint (MG_MID) of Log10 LC50 ([2]; Melanoma panel, log of concentration leading to 50% net cell death): 4.62
- GI50 ([3]; Ovarian panel, log of concentration in mol/L causing 50% inhibition of net cell growth, read-out: mean graph midpoint (MG_MID) of Log10 GI50 (converted)): 1.82 µM
- LC50 ([3]; Ovarian panel, log of concentration leading to 50% net cell death, read-out: mean graph midpoint (MG_MID) of Log10 LC50 (converted)): 25.7 µM
- GI50 ([3]; six ovarian cancer cell lines, exposure at least 48 hrs, read-out: GI50, range over the panel): 1.33 to 2.33 µM
- mean graph midpoint (MG_MID) of Log10 LC50 ([4]; Colon panel, log of concentration leading to 50% net cell death): 5.08
- GI50 ([4]; Colon panel, log of concentration in mol/L causing 50% inhibition of net cell growth, read-out: mean graph midpoint (MG_MID) of Log10 GI50 (converted)): 1.02 µM
- GI50 ([4]; seven colon cancer cell lines, exposure at least 48 hrs, read-out: GI50, range over the panel): 0.22 to 2.13 µM
- GI50 ([5]; Breast panel, log of concentration in mol/L causing 50% inhibition of net cell growth, read-out: mean graph midpoint (MG_MID) of Log10 GI50 (converted)): 1.29 µM
- LC50 ([5]; Breast panel, log of concentration leading to 50% net cell death, read-out: mean graph midpoint (MG_MID) of Log10 LC50 (converted)): 31.6 µM
- GI50 ([5]; five breast cancer cell lines, exposure at least 48 hrs, read-out: GI50, range over the panel): 0.47 to 2.01 µM
- GI50 ([6]; Non-small cell lung panel, log of concentration in mol/L causing 50% inhibition of net cell growth, read-out: mean graph midpoint (MG_MID) of Log10 GI50 (converted)): 1.74 µM
- LC50 ([6]; Non-small cell lung panel, log of concentration leading to 50% net cell death, read-out: mean graph midpoint (MG_MID) of Log10 LC50 (converted)): 20 µM
- GI50 ([6]; nine non-small cell lung cancer cell lines, exposure at least 48 hrs, read-out: GI50, range over the panel): 0.51 to 3.38 µM
- GI50 ([7]; Renal panel, log of concentration in mol/L causing 50% inhibition of net cell growth, read-out: mean graph midpoint (MG_MID) of Log10 GI50 (converted)): 8.91 µM
- LC50 ([7]; Renal panel, log of concentration leading to 50% net cell death, read-out: mean graph midpoint (MG_MID) of Log10 LC50 (converted)): 10.2 µM
- GI50 ([7]; eight renal cancer cell lines, exposure at least 48 hrs, read-out: GI50, range over the panel): 1.26 to 3.45 µM
- GI50 ([8]; Homo sapiens, log of concentration in mol/L causing 50% inhibition of net cell growth, read-out: mean graph midpoint (MG_MID) of Log10 GI50 (converted)): 1.86 µM
- LC50 ([8]; Homo sapiens, log of concentration leading to 50% net cell death, read-out: mean graph midpoint (MG_MID) of Log10 LC50 (converted)): 79.4 µM
- mean graph midpoint (MG_MID) of Log10 TGI ([8]; log of concentration resulting in total inhibition of net cell growth): 5.10
- mean graph midpoint (MG_MID) of Log10 LC50 ([9]; CNS panel, log of concentration leading to 50% net cell death): 5.04
- GI50 ([9]; CNS panel, log of concentration in mol/L causing 50% inhibition of net cell growth, read-out: mean graph midpoint (MG_MID) of Log10 GI50 (converted)): 1.48 µM
- GI50 ([9]; six CNS cancer cell lines, exposure at least 48 hrs, read-out: GI50, range over the panel): 1.09 to 1.88 µM
- GI50 ([10]; U-251, 48 h exposure, SRB, read-out: GI50): 1.09 µM
- GI50 ([10]; U-251, read-out: pGI50 (-log of molar concentration causing 50% inhibition of net cell growth) (converted)): 1.1 µM
- GI50 [11, 26]: 1.44 µM
- GI50 [11, 27]: 1.45 µM
- GI50 [12, 26]: 1.74 µM
- GI50 [12, 27]: 1.74 µM
- GI50 [13, 26]: 3.38 µM
- GI50 [13, 27]: 3.39 µM
- GI50 ([14]; RXF 393, 48 h exposure, SRB, read-out: GI50): 1.41 µM
- GI50 ([14]; RXF-393, read-out: pGI50 (-log of molar concentration causing 50% inhibition of net cell growth) (converted)): 1.41 µM
- GI50 [15, 26]: 1.68 µM
- GI50 [15, 27]: 1.7 µM
- GI50 [16, 26]: 1.67 µM
- GI50 [16, 27]: 1.66 µM
- GI50 [17, 26]: 3.79 µM
- GI50 [17, 27]: 3.8 µM
- GI50 [18, 26]: 0.4 µM
- GI50 [18, 27]: 0.398 µM
- GI50 [19, 26]: 1.26 µM
- GI50 [19, 27]: 1.26 µM
- GI50 [20, 26]: 0.47 µM
- GI50 [20, 27]: 0.468 µM
- GI50 [21, 26]: 0.22 µM
- GI50 [21, 27]: 0.219 µM
- GI50 [22, 26]: 1.16 µM
- GI50 [22, 27]: 1.15 µM
- GI50 [23, 26]: 1.66 µM
- GI50 [23, 27]: 1.66 µM
- GI50 ([24]; PC-3, read-out: pGI50 (-log of molar concentration causing 50% inhibition of net cell growth) (converted)): 1.86 µM
- GI50 ([24]; one prostate cancer cell line (PC-3), exposure at least 48 hrs, read-out: GI50): 1.85 µM
- GI50 [25, 26]: 1.71 µM
- GI50 [25, 27]: 1.7 µM
